The results in this text go back to the supplement of paper PMC10307832.

Common to all, as to assay: relative viability (nuclei count vs DMSO), 5 days (fraction); higher = more cells survive
Compound in assay [1]: CC1CC(=O)N(C2=CN=C(N=C2N1C3CCCC3)NC4=C(C=C(C=C4)C(=O)NC5CCN(CC5)C)OC)C [NPK76-II-72-1] + COc1cc2c(Oc3ccc(NC(=O)C4(C(=O)Nc5ccc(F)cc5)CC4)cc3F)ccnc2cc1OCCCN1CCOCC1 [Foretinib] (partner 0.25 µM)
The procedure, abridged: (§1)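 Lung cancer cell lines were pin-tool dosed in 1536-well plates on the day after seeding, with either a lone drug or a fixed anchor-drug dose plus five library-drug doses (not always all listed) in √10 steps. Nuclei were counted on 4× images after 5 days. Relative viability is the ratio of treated-well to vehicle-well nuclei counts, with each value a median of duplicate plates.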

Compound in the assay “BI-2536 + Palbociclib”: CC[C@@H]1C(=O)N(C)c2cnc(Nc3ccc(C(=O)NC4CCN(C)CC4)cc3OC)nc2N1C1CCCC1 [BI-2536] + CC(=O)c1c(C)c2cnc(Nc3ccc(N4CCNCC4)cn3)nc2n(C2CCCC2)c1=O [Palbociclib] (partner 0.5 µM)
The procedure, abridged: as §1

Compound in a further assay: CC[C@@H]1C(=O)N(C)c2cnc(Nc3ccc(C(=O)NC4CCN(C)CC4)cc3OC)nc2N1C1CCCC1 [BI-2536]
The method in brief:
(§2)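 Viability was read as treated-well nuclei divided by vehicle-well nuclei, using the median across plates. Lung cancer cell lines in 1536-well plates were kept overnight at 37 °C, pinned with five √10-spaced library-drug doses, and after 5 days were Hoechst-stained, imaged at 4× and counted in MetaXpress. Plates passed only with control CV below 25% and at least one doubling.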

Compound in a further assay: CC1CC(=O)N(C2=CN=C(N=C2N1C3CCCC3)NC4=C(C=C(C=C4)C(=O)NC5CCN(CC5)C)OC)C [NPK76-II-72-1]
The procedure, abridged:
as §2

UMC-11: the relative viability in assay [1] (first compound 0.01 µM) stood at 0.988; in assay [1] (first compound 0.03162 µM), 1.06; in assay [1] (first compound 0.1 µM), 1.06; in assay [1] (first compound 1 µM), 0.95; in the assay with BI-2536 + Palbociclib (first compound 0.01 µM), 0.295; in the assay with BI-2536 + Palbociclib (first compound 0.03162 µM), 0.295. Besides, the relative viability was found to be 0.228 with BI-2536 + Palbociclib (first compound 0.1 µM); 0.223 in the assay with BI-2536 + Palbociclib (first compound 0.3162 µM); 0.23 with BI-2536 + Palbociclib (first compound 1 µM); 0.923 with BI-2536 (0.01 µM); 0.624 in the assay with BI-2536 (0.03162 µM); 0.175 with BI-2536 (0.1 µM). Further, the relative viability stood at 0.205 with BI-2536 (0.3162 µM); 0.2 in the assay with BI-2536 (1 µM); 0.93 with NPK76-II-72-1 (0.01 µM); 0.95 with NPK76-II-72-1 (0.03162 µM); 1.01 with NPK76-II-72-1 (0.1 µM); 0.909 with NPK76-II-72-1 (0.3162 µM). Moreover, the relative viability in the assay with NPK76-II-72-1 (1 µM) came out at 0.931.
